Source: ChEMBL document CHEMBL1201862, “PubChem BioAssay data set” (2004)
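Compound exposure: 48 hours, 5 concentrations, 96-well plates. GI50 = concentration required for 50% inhibition of growth.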 Calls of active or inactive are those of the source. No stated cut-off is given here; in the data, active = GI50 up to about 1.1 µM and inactive = higher.

Assays:
Assay in all cases: DTP human tumour cell line panel, 48 h
[1] = system: Malme-3M
[2] = system: OVCAR-8
[3] = system: SF-268
[4] = system: COLO 205
[5] = system: NCI-H23
[6] = system: HL-60
[7] = system: NCI-H522
[8] = system: CCRF-CEM
[9] = system: M14
[10] = system: OVCAR-5
[11] = system: SF-539
[12] = system: EKVX
[13] = system: 786-0
[14] = system: HOP-62
[15] = system: SF-295
[16] = system: RPMI-8226
[17] = system: HCC 2998

Measured: GI50

Cc1ccc(C2=C(Cl)C(=O)C(c3ccc(C)cc3)=C(Cl)C2=O)cc1
inactive: [1] > 100 µM | [2] > 100 µM | [3] > 100 µM | [4] > 100 µM | [5] > 100 µM | [6] > 100 µM | [7] > 100 µM | [8] 83.4 µM | [9] > 100 µM | [10] > 100 µM | [11] > 100 µM | [12] > 100 µM | [13] > 100 µM | [14] > 100 µM | [15] > 100 µM | [16] > 100 µM

CCOC(=O)CCC1(C(=O)O[C@@H]2C[C@H](C)CC[C@H]2C(C)C)CCCCC1=O (some centres undefined)
inactive: [1] > 100 µM | [2] > 100 µM | [3] > 100 µM | [4] 65 µM | [5] 74.8 µM | [6] 18.2 µM | [7] 67.6 µM | [8] 46.1 µM | [9] 56.5 µM | [10] > 100 µM | [11] > 100 µM | [12] 41.3 µM | [13] > 100 µM | [14] > 100 µM | [15] 65.8 µM | [16] 28.7 µM

CCOC(=O)c1nc2c(Cl)c3ncccc3cc2[nH]c1=O
inactive: [1] > 100 µM | [2] 29.9 µM | [3] 44.6 µM | [4] > 100 µM | [5] 29.3 µM | [6] 14.2 µM | [7] 34.4 µM | [8] 17.5 µM | [9] 27.9 µM | [10] 61.7 µM | [11] 34.8 µM | [12] 9.08 µM | [13] 35.6 µM | [14] 25.6 µM | [15] 22.8 µM | [17] 19.6 µM

Oc1c(C2=NNC(c3cccs3)C2)ccc2ccccc12 (centres undefined)
inactive: [1] 18.8 µM | [2] 27.5 µM | [3] 10.9 µM | [4] 19.5 µM | [5] 28.5 µM | [7] 21.9 µM | [8] 11.1 µM | [9] 14.4 µM | [10] 29.6 µM | [11] 20.1 µM | [13] 32.9 µM | [14] 26.9 µM | [15] 18.2 µM | [16] 17.7 µM | [17] 14.8 µM

N#CCCN(CCN(CCN(C(=O)Nc1ccccc1)c1ccccc1)C(=O)Nc1ccccc1)C(=O)Nc1ccccc1
inactive: [2] > 100 µM | [3] > 100 µM | [4] > 100 µM | [5] > 100 µM | [8] 1.89 µM | [9] > 100 µM | [10] > 100 µM | [11] > 100 µM | [12] 54.2 µM | [13] > 100 µM | [14] > 100 µM | [15] > 100 µM | [16] 6.47 µM | [17] 28.2 µM

Cc1nnc([C@@]2(C)CC[C@H]3[C@@H](CCC4=CC(=O)CC[C@@]43C)[C@@H]2CC#N)o1
inactive: [1] > 100 µM | [2] > 100 µM | [3] > 100 µM | [4] > 100 µM | [5] > 100 µM | [6] > 100 µM | [7] > 100 µM | [8] > 100 µM | [9] > 100 µM | [10] > 100 µM | [11] > 100 µM | [12] > 100 µM | [13] > 100 µM | [14] > 100 µM | [15] > 100 µM | [16] > 100 µM

COC(=O)[C@]1(C)CC[C@]2(C)CC[C@]3(C)C4[C@H]5Oc6c(cc7c(c6C)CCC6[C@@]7(C)CC[C@@]7(C)C8[C@](C)(CCC[C@@]8(C)C(=O)OC)CC[C@]67C)O[C@H]5c5c(cc6c(c5C)O[C@@]5(C)C7=CC=C8[C@@](C)(CC[C@@]9(C)[C@@H]%10C[C@](C)(C(=O)OC)CC[C@]%10(C)CC[C@]89C)C7=CC(=O)[C@@]5(O)O6)[C@]4(C)CC[C@@]3(C)C2C1 (some centres undefined)
inactive: [1] 4.86 µM | [2] 2.63 µM | [3] 4.5 µM | [4] 6.35 µM | [5] 8.97 µM | [6] 5.32 µM | [7] 2.49 µM | [8] 1.19 µM | [9] 4.01 µM | [10] 9.79 µM | [11] 2.63 µM | [12] 3.42 µM | [13] 1.86 µM | [14] 8.51 µM | [15] > 12.5 µM

Cc1cc2c(cc1Cl)SC(N/N=C(\N)c1ccc(Cl)cc1)=NS2(=O)=O
inactive: [1] 38.1 µM | [2] 45.4 µM | [3] 45.6 µM | [4] 42.3 µM | [5] 30.7 µM | [6] 40.5 µM | [7] 30.6 µM | [8] 43.3 µM | [9] 81.5 µM | [10] > 100 µM | [11] 32.3 µM | [12] 72.9 µM | [13] 90.8 µM | [14] > 100 µM | [15] 71.3 µM | [17] 40.6 µM

CC(C)(C)OC(=O)N1CCc2[nH][nH]c(=O)c2C1
inactive: [1] > 100 µM | [2] > 100 µM | [3] > 100 µM | [4] > 100 µM | [5] > 100 µM | [6] > 100 µM | [7] > 100 µM | [8] > 100 µM | [9] > 100 µM | [11] > 100 µM | [12] > 100 µM | [13] > 100 µM | [14] > 100 µM | [15] > 100 µM | [16] > 100 µM

Cc1nc(Nc2nc3ccccc3[nH]2)nc(Cl)c1CCCl
inactive: [1] > 100 µM | [2] > 100 µM | [3] 95.7 µM | [4] > 100 µM | [5] > 100 µM | [6] > 100 µM | [7] > 100 µM | [8] > 100 µM | [9] > 100 µM | [11] > 100 µM | [12] > 100 µM | [13] > 100 µM | [16] > 100 µM

CN(C)c1ccc(C=C2C(=O)N(c3ccccc3)N(c3ccccc3)C2=O)cc1
inactive: [1] > 100 µM | [2] 56.5 µM | [3] > 100 µM | [4] > 100 µM | [5] > 100 µM | [7] > 100 µM | [9] > 100 µM | [10] > 100 µM | [12] > 100 µM | [13] 71.1 µM | [14] > 100 µM | [15] 63.4 µM | [16] 69 µM

COc1ccc(OC)c2sc(N3C(=O)/C(=C/c4ccc(SC)cc4)N=C3c3ccccc3)nc12
inactive: [2] 27.7 µM | [3] 14.1 µM | [4] 58.5 µM | [6] 25.5 µM | [8] 8.17 µM | [9] 21.2 µM | [10] 47.3 µM | [11] 23.8 µM | [12] 32.1 µM | [13] 43.3 µM | [14] 16.4 µM | [15] 42 µM | [16] 13.3 µM | [17] 71.4 µM

Cc1cn(C2CC(COCc3ccccc3)N(CCO[Si](C)(C)C(C)(C)C)O2)c(=O)[nH]c1=O (centres undefined)
inactive: [1] 18.2 µM | [2] 15.5 µM | [3] 21.3 µM | [4] 15.1 µM | [5] 16.2 µM | [7] 16.2 µM | [9] 15 µM | [10] 17.7 µM | [11] 19.1 µM | [13] 27.9 µM | [14] 17.3 µM | [15] 16.4 µM | [16] 15.1 µM

Cc1ccc(S(=O)(=O)N2C[C@](O)(c3ccccc3)[C@H]2C)cc1
inactive: [1] > 100 µM | [2] > 100 µM | [3] > 100 µM | [4] > 100 µM | [5] > 100 µM | [6] 72.8 µM | [7] > 100 µM | [8] 26.4 µM | [9] > 100 µM | [10] > 100 µM | [11] > 100 µM | [12] > 100 µM | [13] > 100 µM | [14] > 100 µM | [15] > 100 µM

C[n+]1c(-c2ccc(/C=N/NC(=O)C(=O)N/N=C/c3ccc(-c4cn5ccsc5[n+]4C)cc3)cc2)cn2ccsc21
inactive: [2] > 100 µM | [3] > 100 µM | [4] > 100 µM | [6] > 100 µM | [7] > 100 µM | [8] > 100 µM | [9] > 100 µM | [10] > 100 µM | [11] > 100 µM | [12] > 100 µM | [13] > 100 µM | [14] > 100 µM | [15] 53.5 µM | [16] 82.6 µM | [17] > 100 µM

CC1(C)N=C(N)N=C(N)N1c1cccc(OCCOc2ccc([N+](=O)[O-])cc2)c1
inactive: [1] 20.6 µM | [2] 74.6 µM | [3] 5.04 µM | [4] 37.4 µM | [5] 4.9 µM | [6] 66.8 µM | [7] 3.79 µM | [8] 7.76 µM | [9] 34.8 µM | [10] > 100 µM | [11] 15.2 µM | [12] > 100 µM | [13] 4.99 µM | [14] > 100 µM | [15] > 100 µM | [16] 16.5 µM

C=C(C)C1CCC2(C)C1CCC1(C)C2CCC2C3(C)C4OC(OC4=O)C(C)(C)C3CCC21C (centres undefined)
inactive: [2] > 100 µM | [3] > 100 µM | [4] 48.3 µM | [5] > 100 µM | [6] 47.3 µM | [7] 14.6 µM | [8] 80.4 µM | [9] > 100 µM | [10] > 100 µM | [11] > 100 µM | [12] > 100 µM | [13] > 100 µM | [14] > 100 µM | [15] > 100 µM | [16] > 100 µM | [17] > 100 µM
